Assay results taken from US20100247491A1, “Potentiation of Stem Cell Homing and Treatment of Organ Dysfunction or Organ Failure” (priority 2007, published 2010).

How the values were obtained:
MSCs = assay: MSC migration towards SDF-1 in a transwell culture system; type: cell-based, Fisher 344 rats; conditions: pre-incubation of MSCs with the agent, FIG. 7
Description: AMD 3100 is a non-peptide antagonist of CXCR4 and Diprotin A (Ile-Pro-Ile, Peptides International, Louisville, Ky.) is a commonly used example of a CD26 inhibitor. […] Thus, the invention provides for the use of a CD26 inhibitor for the treatment of renal organ dysfunction (i.e., damage or injury), particularly, in combination with the use of MSCs. For example, it is believed that inhibition of SDF-1 inactivation will increase the homing of administered MSCs to an injured kidney and potentiate renal repair.
Bone marrow-derived MSCs from Fisher 344 rats were used for in vitro experiments. […] In addition, cultured MSCs express functional CD26 and can effectively inactivate SDF-1. […] As a result of the in vitro data, it is reasoned that inhibiting CD26 will augment the SDF-1-CXCR4 mediated chemotactic activity of MSCs in vivo. Thus, the invention relates to pre-treatment or co-administration of MSCs with a CD26 inhibitor to augment the homing and renal protective functions of MSCs administered to a subject to treat a disease involving organ failure or organ dysfunction.

rats with I/R ARF = assay: I/R ARF rat model, CD26 inhibitor given before MSCs (Example II); type: in vivo; conditions: MSCs following Diprotin A
Description: All procedures involving animals are approved by the respective Institutional Animal Care and Use Committees of the University of Utah, Veterans Affairs Medical Center (Salt Lake City, Utah), Indiana University (Indianapolis, Ind.), and the University of Hamburg (Hamburg, Germany). Animals are housed at a constant temperature and humidity, with a 12:12-h light-dark cycle, and have unrestricted access to a standard diet and tap water. Adult male Sprague-Dawley (SD) and Fisher 344 (F344) rats weighing 200-300 g are preferably used (Charles River, Wilmington, Mass.).
I/R ARF is induced in isoflurane-anesthetized animals, and rectal temperature is maintained at 37° C. After a midabdominal laparatomy, kidneys are exposed and renal pedicles are clamped with atraumatic vascular clamps for about 40 min. […]
Quantification of cell numbers. CFDA-labeled green fluorescing cells are examined and quantified in kidneys at 2, 24, 36, 48, 60, and/or 72 h after ARF and cell infusions. Nuclei are stained with either Hoechst 33342 or propidium iodide, and nuclei are counted in at least three high-power fields (HPF) per section based on a calibrated confocal micrometer measurement bar. After this, total cell numbers of the studied tissue sections are calculated based on the number of nuclei and surface area of the section.
Renal function may be assessed by serum creatinine and/or blood urea nitrogen levels. […]

Sca-1+lin-donor cells = conditions: donor cells treated with 5 mM Diprotin A for 15 minutes before transplant; FIG. 4, Christopherson II et al. (2004); cited from earlier work

c1cc(CN2CCCNCCNCCCNCC2)ccc1CN1CCCNCCNCCCNCC1 [AMD 3100]
MSC migration towards SDF-1 (MSCs): decreased

H-Ile-Pro-Ile-OH [Diprotin A]
MSC migration towards SDF-1 (MSCs): significantly increased
renal function (serum creatinine and/or blood urea nitrogen) (rats with I/R ARF; by at least days 2 and/or 3, relative to MSC only treated animals): significantly improved renal function
migration of MSCs to the kidney (rats with I/R ARF; relative to MSC only treated animals): increased migration of MSCs to the kidney
homing of HSCs from the circulation to bone (Sca-1+lin-donor cells): can increase homing of HSCs
